In patent EP0811615A1, “1-Aryl-5-(substituted alkyl (thio) amido) pyrazoles and their use as pesticides” (RHONE-POULENC AGROCHIMIE, priority 1996, dated 1997):

These compounds were tested on southern armyworm (assay: Southern armyworm foliar spray test on bean plants). Details: Spodoptera eridania, 120 h; foliar application at 100 ppm; second instar larvae, held five days; read-out: pest mortality SAW.
Format: in vivo
Experimental: (§1) For mite, aphid, southern armyworm, Mexican bean beetle, and tobacco budworm tests, a solution or suspension was prepared by adding 10 mg of the test compound to a solution of 160 mg of dimethylformamide, 838 mg of acetone, 2 mg of a 3:1 ratio of Triton X-172 : Triton X-152 (respectively, mainly anionic and nonionic low foam emulsifiers which are each anhydrous blends of alkylaryl polyether alcohols with organic sulfonates), and […] of water. The result was a concentration of 100 ppm of the test compound.
(§2) Southern armyworm: Potted bean plants, were placed on a revolving turntable and sprayed with 100 ml of the 100 ppm test compound formulation by use of a DeVilbiss spray gun set at 40 psig air pressure. As an untreated control, 100 ml of a water-acetone-DMF-emulsifier solution, containing no test compound, were also sprayed on plants. A treated control with a commercial technical compound, either cypermethrin or sulprofos, formulated in the same manner, was tested as a standard. When dry, the leaves were placed in plastic cups lined with moistened filter paper. Five randomly selected second instar southern armyworm larvae were introduced into each cup which was closed and held for five days. Larvae which were unable to move the length of the body, even upon stimulation by prodding, were considered dead.

Row | SMILES | mortality at 100 ppm [%]
1 | CCOCC(=O)Nc1c(S(=O)(=O)C(F)(F)F)c(C#N)nn1-c1c(Cl)cc(C(F)(F)F)cc1Cl [Compound 12] | 70 to 100
2 | COCC(=O)Nc1c([S+]([O-])C(F)(Cl)Cl)c(C#N)nn1-c1c(Cl)cc(C(F)(F)F)cc1Cl (centres unmarked) [Compound 17] | 70 to 100
3 | CCOCC(=O)Nc1c([S+]([O-])C(F)(Cl)Cl)c(C#N)nn1-c1c(Cl)cc(C(F)(F)F)cc1Cl (centres unmarked) [Compound 18] | 70 to 100
4 | COC(C)C(=O)Nc1c([S+]([O-])C(F)(Cl)Cl)c(C#N)nn1-c1c(Cl)cc(C(F)(F)F)cc1Cl (centres unmarked) [Compound 28] | 70 to 100
5 | N#Cc1nn(-c2c(Cl)cc(C(F)(F)F)cc2Cl)c(NC(=O)CO)c1SC(F)(F)F [Compound 32] | 70 to 100
6 | CCCCCCCOCC(=O)Nc1c(SC(F)(F)F)c(C#N)nn1-c1c(Cl)cc(C(F)(F)F)cc1Cl [Compound 34] | 70 to 100
7 | CCOC(C)C(=O)Nc1c(SC(F)(F)F)c(C#N)nn1-c1c(Cl)cc(C(F)(F)F)cc1Cl (centres unmarked) [Compound 39] | 70 to 100
8 | CCCCOC(C)C(=O)Nc1c(SC(F)(F)F)c(C#N)nn1-c1c(Cl)cc(C(F)(F)F)cc1Cl (centres unmarked) [Compound 42] | 70 to 100
9 | COCC(=O)Nc1c(SC(F)(Cl)Cl)c(C#N)nn1-c1c(Cl)cc(OC(F)(F)F)cc1Cl [Compound 46] | 70 to 100
10 | COC(C)C(=O)Nc1c(SC(F)(Cl)Cl)c(C#N)nn1-c1c(Cl)cc(OC(F)(F)F)cc1Cl (centres unmarked) [Compound 47] | 70 to 100

The compounds below were run on Mexican bean beetle (assay: Mexican bean beetle foliar spray test on bean plants). Details: Epilachna varivestis, 120 h; foliar application at 100 ppm; second instar larvae, held five days; read-out: pest mortality MBB.
Format: in vivo
Experimental: as §1
as §2, with “Mexican bean beetle:” for “Southern armyworm:”, “plants” for “plants,”, “formulation, sufficient to wet the plants to runoff,” for “formulation”, “Mexican bean beetle” for “southern armyworm”

Row | SMILES | mortality at 100 ppm [%]
11 | CCOCC(=O)Nc1c([S+]([O-])C(F)(Cl)Cl)c(C#N)nn1-c1c(Cl)cc(C(F)(F)F)cc1Cl (centres unmarked) [Compound 18] | 70 to 100
12 | COC(C)C(=O)Nc1c([S+]([O-])C(F)(Cl)Cl)c(C#N)nn1-c1c(Cl)cc(C(F)(F)F)cc1Cl (centres unmarked) [Compound 28] | 70 to 100
13 | CCOC(C)C(=O)Nc1c(SC(F)(F)F)c(C#N)nn1-c1c(Cl)cc(C(F)(F)F)cc1Cl (centres unmarked) [Compound 39] | 70 to 100

What follows are compounds tested on housefly (assay: House fly bait test). Details: Musca domestica; bait application at 100 ppm; adult flies, after 24 hours; read-out: pest mortality HF.
Format: in vivo
Text: For housefly tests, the formulation was initially prepared in a similar manner to the above, but in 16.3 g of water with corresponding adjustment of other components, providing a 200 ppm concentration. Final dilution with an equal volume of a 20% by weight aqueous solution of sucrose provided a 100 ppm concentration of the test compound. When necessary, sonication was provided to insure complete dispersion.
House fly: Four to six day old adult house flies were reared according to the specifications of the Chemical Specialties Manufacturing Association (Blue Book, McNair-Dorland Co., N.Y. 1954; pages 243-244, 261) under controlled conditions. The flies were immobilized by anesthetizing with carbon dioxide and twenty five immobilized individuals, males and females, were transferred to a cage consisting of a standard food strainer and a wrapping-paper-covered surface. Ten ml of the 100 ppm test compound formulation were added to a soufflé cup containing an absorbent cotton pad. As an untreated control, 10 ml of a water-acetone-DMF-emulsifier-sucrose solution, containing no test compound, were applied in a similar manner. A treated control with a commercial technical compound, malathion, formulated in the same manner, was tested as a standard. The bait cup was introduced inside the food strainer prior to admitting the anesthetized flies.

Row | SMILES | mortality at 100 ppm [%]
14 | CCOCC(=O)Nc1c(S(=O)(=O)C(F)(F)F)c(C#N)nn1-c1c(Cl)cc(C(F)(F)F)cc1Cl [Compound 12] | 70 to 100
15 | COCC(=O)Nc1c([S+]([O-])C(F)(Cl)Cl)c(C#N)nn1-c1c(Cl)cc(C(F)(F)F)cc1Cl (centres unmarked) [Compound 17] | 70 to 100
16 | COC(C)C(=O)Nc1c([S+]([O-])C(F)(Cl)Cl)c(C#N)nn1-c1c(Cl)cc(C(F)(F)F)cc1Cl (centres unmarked) [Compound 28] | 70 to 100
17 | N#Cc1nn(-c2c(Cl)cc(C(F)(F)F)cc2Cl)c(NC(=O)CO)c1SC(F)(F)F [Compound 32] | 70 to 100
18 | CCCCCCCOCC(=O)Nc1c(SC(F)(F)F)c(C#N)nn1-c1c(Cl)cc(C(F)(F)F)cc1Cl [Compound 34] | 70 to 100
19 | CCOC(C)C(=O)Nc1c(SC(F)(F)F)c(C#N)nn1-c1c(Cl)cc(C(F)(F)F)cc1Cl (centres unmarked) [Compound 39] | 70 to 100
20 | CCCCOC(C)C(=O)Nc1c(SC(F)(F)F)c(C#N)nn1-c1c(Cl)cc(C(F)(F)F)cc1Cl (centres unmarked) [Compound 42] | 70 to 100
21 | COCC(=O)Nc1c(SC(F)(Cl)Cl)c(C#N)nn1-c1c(Cl)cc(OC(F)(F)F)cc1Cl [Compound 46] | 70 to 100
22 | COC(C)C(=O)Nc1c(SC(F)(Cl)Cl)c(C#N)nn1-c1c(Cl)cc(OC(F)(F)F)cc1Cl (centres unmarked) [Compound 47] | 70 to 100

Each compound was assayed on tobacco budworm (assay: Tobacco budworm foliar spray test on cotton plants). Details: Heliothis virescens, 120 h; foliar application at 100 ppm; second instar larvae, held five days; read-out: pest mortality TBW.
Format: in vivo
Experimental: as §1
Tobacco budworm: Potted cotton plants were placed on a revolving turntable and sprayed with 100 ml of the 100 ppm test compound formulation by use of a DeVilbiss spray gun set at 40 psig air pressure. As an untreated control, 100 ml of a water-acetone-DMF-emulsifier solution, containing no test compound, were also sprayed on plants. A treated control with a commercial technical compound, either cypermethrin or sulprofos, formulated in the same manner, was tested as a standard. When dry, the leaves were placed in plastic dishes containing a piece of filter paper and a moistened dental wick. One randomly selected second instar tobacco budworm larva was then introduced into each cup which was closed and held for five days. Larvae unable to move the length of their body, even upon stimulation by prodding, were considered dead.

Row | SMILES | mortality at 100 ppm [%]
23 | CCOCC(=O)Nc1c(S(=O)(=O)C(F)(F)F)c(C#N)nn1-c1c(Cl)cc(C(F)(F)F)cc1Cl [Compound 12] | 70 to 100
24 | COCC(=O)Nc1c([S+]([O-])C(F)(Cl)Cl)c(C#N)nn1-c1c(Cl)cc(C(F)(F)F)cc1Cl (centres unmarked) [Compound 17] | 70 to 100
25 | CCOCC(=O)Nc1c([S+]([O-])C(F)(Cl)Cl)c(C#N)nn1-c1c(Cl)cc(C(F)(F)F)cc1Cl (centres unmarked) [Compound 18] | 70 to 100
26 | COC(C)C(=O)Nc1c([S+]([O-])C(F)(Cl)Cl)c(C#N)nn1-c1c(Cl)cc(C(F)(F)F)cc1Cl (centres unmarked) [Compound 28] | 70 to 100
27 | COCC(=O)Nc1c(SC(F)(Cl)Cl)c(C#N)nn1-c1c(Cl)cc(OC(F)(F)F)cc1Cl [Compound 46] | 70 to 100
28 | COC(C)C(=O)Nc1c(SC(F)(Cl)Cl)c(C#N)nn1-c1c(Cl)cc(OC(F)(F)F)cc1Cl (centres unmarked) [Compound 47] | 70 to 100

What follows are compounds tested on southern root-knot nematode (assay: Southern root-knot nematode soil test on tomato). Details: Meloidogyne incognita; Soil Conc. at 21 Kg/ha; second stage juveniles; read-out: pest mortality Nema (J2).
Format: in vivo
Design: dose or concentration left out as unconfirmed
Experimental: For southern root-knot nematode and systemic tests for southern armyworm, cotton aphid, tobacco budworm and greenbug, a stock solution or suspension was prepared by adding 15 mg of the test compound to 250 mg of dimethylformamide, 1250 mg of acetone and 3 mg of the emulsifier blend referenced above. Water was then added to provide a test compound concentration of 150 ppm. When necessary, sonication was provided to insure complete dispersion.
Southern root-knot nematode: Infected roots of tomato plants, containing egg masses of southern root-knot nematode, were removed from a stock culture and cleaned of soil by shaking and washing with tap water. The nematode eggs were separated from the root tissue and rinsed with water. Samples of the egg suspension were placed on a fine screen over a receiving bowl, in which the water level was adjusted to be in contact with the screen. From the bowl, juveniles were collected on a fine screen. The bottom of a cone-shaped container was plugged with coarse vermiculite and then filled to within 1.5 cm of the top with about a 200 ml volume of pasteurized soil. Then into a hole made in the center of the soil in the cone was pipetted an aliquot of the 150 ppm test compound formulation. A treated control with a commercial technical compound, fenamifos, formulated in a similar manner, was tested as a standard. As an untreated control, an aliquot of a water-acetone-DMF-emulsifier solution, containing no test compound, was applied in a similar manner. Immediately after treatment of the soil with the test compound there were added to the top of each cone 1000 second stage juvenile southern root-knot nematodes. After 3 days, a single healthy tomato seedling was then transplanted into the cone. The cone, containing the infested soil and tomato seedling, was kept in the greenhouse for 3 weeks. At the termination of the test, […], […]

Row | SMILES | mortality [%]
29 | CCOCC(=O)Nc1c(S(=O)(=O)C(F)(F)F)c(C#N)nn1-c1c(Cl)cc(C(F)(F)F)cc1Cl [Compound 12] | 70 to 100
30 | COCC(=O)Nc1c([S+]([O-])C(F)(Cl)Cl)c(C#N)nn1-c1c(Cl)cc(C(F)(F)F)cc1Cl (centres unmarked) [Compound 17] | 70 to 100
31 | CCOCC(=O)Nc1c([S+]([O-])C(F)(Cl)Cl)c(C#N)nn1-c1c(Cl)cc(C(F)(F)F)cc1Cl (centres unmarked) [Compound 18] | 70 to 100
32 | COC(C)C(=O)Nc1c([S+]([O-])C(F)(Cl)Cl)c(C#N)nn1-c1c(Cl)cc(C(F)(F)F)cc1Cl (centres unmarked) [Compound 28] | 70 to 100
33 | N#Cc1nn(-c2c(Cl)cc(C(F)(F)F)cc2Cl)c(NC(=O)CO)c1SC(F)(F)F [Compound 32] | 70 to 100
34 | CCCCCCCOCC(=O)Nc1c(SC(F)(F)F)c(C#N)nn1-c1c(Cl)cc(C(F)(F)F)cc1Cl [Compound 34] | 70 to 100
35 | CCOC(C)C(=O)Nc1c(SC(F)(F)F)c(C#N)nn1-c1c(Cl)cc(C(F)(F)F)cc1Cl (centres unmarked) [Compound 39] | 70 to 100
36 | CCCCOC(C)C(=O)Nc1c(SC(F)(F)F)c(C#N)nn1-c1c(Cl)cc(C(F)(F)F)cc1Cl (centres unmarked) [Compound 42] | 70 to 100

What follows are compounds tested on twospotted spider mite (assay: Twospotted spider mite test). Details: Tetranychus urticae, 144 h; 100 ppm in foliar bait tests; read-out: control of mites.
Format: in vivo
Experimental: Twospotted spider mite: Leaves infested with adult and nymphal stages of the two-spotted spider mite, obtained from a stock culture were placed on the primary leaves of two bean plants growing in a 6 cm. peat pot. A sufficient number of mites (150-200) for testing were transferred to the fresh plants within a period of twenty-four hours. The potted plants (one pot per compound) were placed on a revolving turntable and sprayed, sufficient to wet the plants to runoff, with 100 ml of the 100 ppm test compound formulation by use of a DeVilbiss spray gun set at 40 psig. air pressure. As an untreated control, 100 ml of the water-acetone-DMF-emulsifler solution, containing no test compound, were also sprayed on infested plants. A treated control with a commercial technical compound, either dicofol or hexythiazox, formulated in the same manner, was tested as a standard. The sprayed plants were held for six days, after which a mortality count of motile forms was made.

Row | SMILES | mortality at 100 ppm [%]
37 | COCC(=O)Nc1c(SC(F)(Cl)Cl)c(C#N)nn1-c1c(Cl)cc(OC(F)(F)F)cc1Cl [Compound 46] | 30 to 70
38 | COC(C)C(=O)Nc1c(SC(F)(Cl)Cl)c(C#N)nn1-c1c(Cl)cc(OC(F)(F)F)cc1Cl (centres unmarked) [Compound 47] | 30 to 70
